Assay results as given in patent US9296732B2, “Substituted benzamides and their uses” (The Board of Trustees of the Leland Stanford Junior …, priority 2012, dated 2016).

melting point [°C] | Structure (SMILES)
248 to 250 | Cc1ccc(S(=O)(=O)Cc2nc(-c3ccc(C(=O)Nc4cccnc4)cc3)oc2C)cc1 [Example 1, 4-(5-Methyl-4-{[(4-methylphenyl)sulfonyl]methyl}-1,3-oxazol-2-yl)-N-(3-pyridinyl)benzamide]
204 to 206 | Cc1ccc(S(=O)(=O)Cc2nc(-c3ccc(C(=O)NCc4cnccn4)cc3)oc2C)cc1 [Example 9, 4-(5-Methyl-4-{[(4-methylphenyl)sulfonyl]methyl}-1,3-oxazol-2-yl)-N-(2-pyrazinylmethyl)benzamide]
240 to 242 | Cc1ccc(S(=O)(=O)Cc2nc(-c3ccc(C(=O)NCc4cncn4C)cc3)oc2C)cc1 [Example 11, N-[(1-Methyl-1H-imidazol-5-yl)methyl]-4-(5-methyl-4-{[(4-methylphenyl)sulfonyl]methyl}-1,3-oxazol-2-yl)benzamide]
104 to 108 | COc1ccc(S(=O)(=O)Cc2nc(-c3ccc(C(=O)NCc4cccnc4)cc3)oc2C)cc1OC [Example 20, 4-(4-{[(3,4-Dimethoxyphenyl)sulfonyl]methyl}-5-methyl-1,3-oxazol-2-yl)-N-(3-pyridinylmethyl)benzamide]
224 to 227 | Cc1oc(-c2ccc(C(=O)NCc3cccnc3)cc2)nc1CS(=O)(=O)c1ccc(Br)cc1 [Example 16, 4-(4-{[(4-Bromophenyl)sulfonyl]methyl}-5-methyl-1,3-oxazol-2-yl)-N-(3-pyridinylmethyl)benzamide]
77 to 80 | Cc1ccc(S(=O)(=O)Cc2nc(-c3ccc(C(=O)N(C)Cc4cccnc4)cc3)oc2C)cc1 [Example 7, N-Methyl-4-(5-methyl-4-{[(4-methylphenyl)sulfonyl]methyl}-1,3-oxazol-2-yl)-N-(3-pyridinylmethyl)benzamide]
190 to 192 | Cc1ccc(S(=O)(=O)Cc2nc(-c3ccc(C(=O)NCc4nccn4C)cc3)oc2C)cc1 [Example 10, N-[(1-Methyl-1H-imidazol-2-yl)methyl]-4-(5-methyl-4-{[(4-methylphenyl)sulfonyl]methyl}-1,3-oxazol-2-yl)benzamide]
266 to 269 | O=C(Nc1cccnc1)c1ccc(CNS(=O)(=O)c2nnc[nH]2)cc1 [II-7, N-(3-pyridinyl)-4-{[(4H-1,2,4-triazol-3-ylsulfonyl)amino]methyl}benzamide]
226 to 228 | O=C(Nc1cccnc1)c1ccc(CNS(=O)(=O)c2ccc(Cl)nc2)cc1 [II-2, 4-({[(6-Chloro-3-pyridinyl)sulfonyl]amino}methyl)-N-(3-pyridinyl)benzamide]
143 to 145 | COc1cccc(S(=O)(=O)Cc2nc(-c3ccc(C(=O)NCc4cccnc4)cc3)oc2C)c1 [Example 19, 4-(5-Methyl-4-{[(3-methoxyphenyl)sulfonyl]methyl}-1,3-oxazol-2-yl)-N-(3-pyridinylmethyl)benzamide]
154 to 155 | Cc1ccc(S(=O)(=O)Cc2nc(-c3ccc(C(=O)NCc4ccccn4)cc3)oc2C)cc1 [Example 4, 4-(5-Methyl-4-{[(4-methylphenyl)sulfonyl]methyl}-1,3-oxazol-2-yl)-N-(2-pyridinylmethyl)benzamide]
208 to 210 | Cc1oc(-c2ccc(C(=O)NCc3cccnc3)cc2)nc1CS(=O)(=O)c1ccc(N2CCOCC2)cc1 [Example 24, 4-[5-Methyl-4-({[4-(4-morpholinyl)phenyl]sulfonyl}methyl)-1,3-oxazol-2-yl]-N-(3-pyridinylmethyl)benzamide]
238 to 240 | Cc1ncc(S(=O)(=O)NCc2ccc(C(=O)Nc3cccnc3)cc2)n1C [II-6, 4-({[(1,2-Dimethyl-1H-imidazol-5-yl)sulfonyl]amino}methyl)-N-(3-pyridinyl)benzamide]
218 to 220 | Cc1oc(-c2ccc(C(=O)NCc3cccnc3)cc2)nc1CS(=O)(=O)c1ccc(F)cc1 [Example 22, 4-(4-{[(4-Fluorophenyl)sulfonyl]methyl}-5-methyl-1,3-oxazol-2-yl)-N-(3-pyridinylmethyl)benzamide]
229 to 231 | Cc1ccc(S(=O)(=O)Cc2nc(-c3ccc(C(=O)Nc4ccncc4)cc3)oc2C)cc1 [Example 2, 4-(5-Methyl-4-{[(4-methylphenyl)sulfonyl]methyl}-1,3-oxazol-2-yl)-N-(4-pyridinyl)benzamide]
210 to 215 | Cc1oc(-c2ccc(C(=O)NCc3cccnc3)cc2)nc1CS(=O)(=O)c1ccc(N2CCN(C)CC2)cc1 [Example 23, 4-[5-Methyl-4-({[4-(4-methyl-1-piperazinyl)phenyl]sulfonyl}methyl)-1,3-oxazol-2-yl]-N-(3-pyridinylmethyl)benzamide]
179 to 181 | Cc1cccc(S(=O)(=O)Cc2nc(-c3ccc(C(=O)NCc4cccnc4)cc3)oc2C)c1 [Example 17, 4-(5-Methyl-4-{[(3-methylphenyl)sulfonyl]methyl}-1,3-oxazol-2-yl)-N-(3-pyridinylmethyl)benzamide]
178 to 181 | Cc1ccc(S(=O)(=O)Cc2csc(-c3ccc(C(=O)NCc4cccnc4)cc3)n2)cc1 [Example 25, 4-(4-{[(4-Methylphenyl)sulfonyl]methyl}-1,3-thiazol-2-yl)-N-(3-pyridinylmethyl)benzamide]
207 to 208 | Cc1ccc(S(=O)(=O)Cc2nc(-c3ccc(C(=O)NCCc4cccnc4)cc3)oc2C)cc1 [Example 8, 4-(5-Methyl-4-{[(4-methylphenyl)sulfonyl]methyl}-1,3-oxazol-2-yl)-N-[2-(3-pyridinyl)ethyl]benzamide]
188 to 190 | Cc1cc(C)cc(S(=O)(=O)Cc2nc(-c3ccc(C(=O)NCc4cccnc4)cc3)oc2C)c1 [Example 15, 4-(4-{[(3,5-Dimethylphenyl)sulfonyl]methyl}-5-methyl-1,3-oxazol-2-yl)-N-(3-pyridinylmethyl)benzamide]
177 to 180 | Cc1oc(-c2ccc(C(=O)NCc3cccnc3)cc2)nc1CS(=O)(=O)c1ccc(C(C)(C)C)cc1 [Example 14, 4-(4-{[(4-tert-Butylphenyl)sulfonyl]methyl}-5-methyl-1,3-oxazol-2-yl)-N-(3-pyridinylmethyl)benzamide]
196 to 198 | Cc1oc(-c2ccc(C(=O)NCc3cccnc3)cc2)nc1CS(=O)(=O)c1ccccc1 [Example 12, 4-[5-Methyl-4-[(phenylsulfonyl)methyl]-1,3-oxazol-2-yl]-N-(3-pyridinylmethyl)benzamide]
220 to 222 | Cc1oc(-c2ccc(C(=O)NCc3cccnc3)cc2)nc1CS(=O)(=O)c1ccc(Cl)cc1 [Example 13, 4-(4-{[(4-Chlorophenyl)sulfonyl]methyl}-5-methyl-1,3-oxazol-2-yl)-N-(3-pyridinylmethyl)benzamide]
234 to 237 | Cc1oc(-c2ccc(C(=O)NCc3ccccc3)cc2)nc1CS(=O)(=O)c1ccc(Br)cc1 [Example 27, N-Benzyl-4-(4-{[(4-bromophenyl)sulfonyl]methyl}-5-methyl-1,3-oxazol-2-yl)benzamide]
189 to 191 | COc1ccc(S(=O)(=O)Cc2nc(-c3ccc(C(=O)NCc4cccnc4)cc3)oc2C)cc1 [Example 18, 4-(4-{[(4-Methoxyphenyl)sulfonyl]methyl}-5-methyl-1,3-oxazol-2-yl)-N-(3-pyridinylmethyl)benzamide]
